Laboratory results: patent US8952024B2, “Herbicidal pyrimidone derivatives” (E I du Pont de Nemours and Company, priority 2009, dated 2015)

Columns and labels:
Format in all cases: in vivo
[1] = test system: pigweed (Amaranthus retroflexus); assay: Test A pre-/postemergence plant response
Text: (§1) Seeds of barnyardgrass (Echinochloa crus-galli), large crabgrass (Digitaria sanguinalis), giant foxtail (Setaria faberii), morningglory (Ipomoea spp.), pigweed (Amaranthus retroflexus), velvetleaf (Abutilon theophrasti), wheat (Triticum aestivum) and corn (Zea mays) were planted into a blend of loam soil and sand and treated preemergence with a directed soil spray using test chemicals formulated in a non-phytotoxic solvent mixture which included a surfactant. At the same time these species were also treated with postemergence applications of test compounds formulated in the same manner.
(§2) Plants ranged in height from two to ten cm and were in the one- to two-leaf stage for the postemergence treatment. Treated plants and untreated controls were maintained in a greenhouse for approximately ten days, after which time all treated plants were compared to untreated controls and visually evaluated for injury. Plant response ratings, summarized in Table A, are based on a 0 to 100 scale where 0 is no effect and 100 is complete control. A dash (-) response means no test result.

[2] = test system: wheat (Triticum aestivum); assay: Test A pre-/postemergence plant response
Text: as §1, §2

[3] = test system: giant foxtail (Setaria faberii); assay: Test A pre-/postemergence plant response
Text: as §1, §2

[4] = test system: morningglory (Ipomoea spp.); assay: Test A pre-/postemergence plant response
Text: as §1, §2

[5] = test system: barnyardgrass (Echinochloa crus-galli); assay: Test A pre-/postemergence plant response
Text: as §1, §2

[6] = test system: velvetleaf (Abutilon theophrasti); assay: Test A pre-/postemergence plant response
Text: as §1, §2

corn (Zea mays) = assay: Test A pre-/postemergence plant response
Text: as §1, §2

[7] = test system: large crabgrass (Digitaria sanguinalis); assay: Test A pre-/postemergence plant response
Text: as §1, §2

[8] = test system: ducksalad (Heteranthera limosa); assay: Test B flooded paddy test; conditions: for Plant response rating, Flood, Ducksalad: 250 g ai/ha, flooded paddy test, visual rating on 0 to 100 scale (0 no effect, 100 complete control) after 13 to 15 days; for Plant response rating, Ducksalad: Flood (flooded paddy test), 13 to 15 days; for Ducksalad plant response rating: Flood, 31 g ai/ha, scale 0 to 100 (0 no effect, 100 complete control)
Method in brief: (§3)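 Ratings are visual, 0–100 (100 = complete control), taken versus untreated controls 13 to 15 days after treatment in the greenhouse. Compound went straight into paddy water held 3 cm above soil, applied to 2-leaf-stage plants of four species.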

[9] = test system: barnyardgrass (Echinochloa crus-galli); assay: Test B flooded paddy test; conditions: for Plant response rating, Flood, Barnyardgrass: 250 g ai/ha, flooded paddy test, visual rating on 0 to 100 scale (0 no effect, 100 complete control) after 13 to 15 days; for Plant response rating, Barnyardgrass: Flood (flooded paddy test), 13 to 15 days; for Barnyardgrass plant response rating: Flood, 31 g ai/ha, scale 0 to 100 (0 no effect, 100 complete control)
Method in brief: as §3

rice (Oryza sativa) = assay: Test B flooded paddy test; conditions: for Plant response rating, Flood, Rice: 250 g ai/ha, flooded paddy test, visual rating on 0 to 100 scale (0 no effect, 100 complete control) after 13 to 15 days; for Plant response rating, Rice: Flood (flooded paddy test), 13 to 15 days; for Rice plant response rating: Flood, 31 g ai/ha, scale 0 to 100 (0 no effect, 100 complete control)
Method in brief: as §3

[10] = test system: umbrella sedge (Cyperus difformis); assay: Test B flooded paddy test; conditions: for Plant response rating, Flood, Sedge, Umbrella: 250 g ai/ha, flooded paddy test, visual rating on 0 to 100 scale (0 no effect, 100 complete control) after 13 to 15 days; for Plant response rating, Sedge, Umbrella: Flood (flooded paddy test), 13 to 15 days; for Sedge, Umbrella plant response rating: Flood, 31 g ai/ha, scale 0 to 100 (0 no effect, 100 complete control)
Method in brief: as §3

[11] = Postemergence, 125 g ai/ha, 0 to 100 scale where 0 is no effect and 100 is complete control
[12] = Postemergence, 500 g ai/ha, 0 to 100 scale, 0 = no effect, 100 = complete control, approx. ten days
[13] = Preemergence, 125 g ai/ha, 0 to 100 scale, 0 = no effect, 100 = complete control
[14] = Preemergence, 500 g ai/ha, visual injury, 0 to 100 scale (0 no effect, 100 complete control), approx. ten days
[15] = 62 g ai/ha, scale of 0 to 100 where 0 is no effect and 100 is complete control
[16] = 125 g ai/ha, scale 0 to 100, 0 is no effect, 100 is complete control

## CCCc1ncc(C(=O)C2=C(O)CCCC2=O)c(=O)n1Cc1cccc(OC)c1 [Compound 104]
[1]; [11]
  Plant response rating, Pigweed: 100
[1]; [12]
  Plant response rating, Pigweed: 100
[1]; [13]
  Plant response rating, Pigweed: 80
[1]; [14]
  Plant response rating, Pigweed: 90
[2]; [11]
  Plant response rating, Wheat: 0
[2]; [12]
  Plant response rating, Wheat: 0
[2]; [13]
  Plant response rating, Wheat: 0
[2]; [14]
  Plant response rating, Wheat: 0
[3]; [11]
  Plant response rating, Foxtail, Giant: 0
[3]; [12]
  Plant response rating, Foxtail, Giant: 0
[3]; [13]
  Plant response rating, Foxtail, Giant: 0
[3]; [14]
  Plant response rating, Foxtail, Giant: 0
[4]; [11]
  Plant response rating, Morningglory: 70
[4]; [12]
  Plant response rating, Morningglory: 100
[4]; [13]
  Plant response rating, Morningglory: 0
[4]; [14]
  Plant response rating, Morningglory: 0
[5]; [11]
  Plant response rating, Barnyardgrass: 10
[5]; [12]
  Plant response rating, Barnyardgrass: 40
[5]; [13]
  Plant response rating, Barnyardgrass: 0
[5]; [14]
  Plant response rating, Barnyardgrass: 0
[6]; [11]
  Plant response rating, Velvetleaf: 70
[6]; [12]
  Plant response rating, Velvetleaf: 80
[6]; [13]
  Plant response rating, Velvetleaf: 0
[6]; [14]
  Plant response rating, Velvetleaf: 40
Corn (Zea mays); [11]
  Plant response rating, Corn: 0
Corn (Zea mays); [12]
  Plant response rating, Corn: 0
Corn (Zea mays); [13]
  Plant response rating, Corn: 0
Corn (Zea mays); [14]
  Plant response rating, Corn: 0
[7]; [11]
  Plant response rating, Crabgrass, Large: 0
[7]; [12]
  Plant response rating, Crabgrass, Large: 0
[7]; [13]
  Plant response rating, Crabgrass, Large: 0
[7]; [14]
  Plant response rating, Crabgrass, Large: 0
[8]
  Plant response rating, Flood, Ducksalad: 0
  Ducksalad plant response rating: 0
[8]; [15]
  Plant response rating, Ducksalad: 0
[8]; [16]
  Plant response rating, Ducksalad: 0
[9]
  Plant response rating, Flood, Barnyardgrass: 0
  Barnyardgrass plant response rating: 0
[9]; [15]
  Plant response rating, Barnyardgrass: 0
[9]; [16]
  Plant response rating, Barnyardgrass: 0
Rice (Oryza sativa)
  Plant response rating, Flood, Rice: 0
  Rice plant response rating: 0
Rice (Oryza sativa); [15]
  Plant response rating, Rice: 0
Rice (Oryza sativa); [16]
  Plant response rating, Rice: 0
[10]
  Plant response rating, Flood, Sedge, Umbrella: 0
  Sedge, Umbrella plant response rating: 0
[10]; [15]
  Plant response rating, Sedge, Umbrella: 0
[10]; [16]
  Plant response rating, Sedge, Umbrella: 0

## CCCc1ncc(C(=O)C2=C(O)CCCC2=O)c(=O)n1Cc1cccc(OC(F)(F)F)c1 [Compound 105]
[1]; [11]
  Plant response rating, Pigweed: 90
[1]; [12]
  Plant response rating, Pigweed: 100
[1]; [13]
  Plant response rating, Pigweed: 80
[1]; [14]
  Plant response rating, Pigweed: 90
[2]; [11]
  Plant response rating, Wheat: 0
[2]; [12]
  Plant response rating, Wheat: 0
[2]; [13]
  Plant response rating, Wheat: 0
[2]; [14]
  Plant response rating, Wheat: 0
[3]; [11]
  Plant response rating, Foxtail, Giant: 0
[3]; [12]
  Plant response rating, Foxtail, Giant: 20
[3]; [13]
  Plant response rating, Foxtail, Giant: 30
[3]; [14]
  Plant response rating, Foxtail, Giant: 50
[4]; [11]
  Plant response rating, Morningglory: 10
[4]; [12]
  Plant response rating, Morningglory: 80
[4]; [13]
  Plant response rating, Morningglory: 0
[5]; [11]
  Plant response rating, Barnyardgrass: 20
[5]; [12]
  Plant response rating, Barnyardgrass: 50
[5]; [13]
  Plant response rating, Barnyardgrass: 0
[5]; [14]
  Plant response rating, Barnyardgrass: 0
[6]; [11]
  Plant response rating, Velvetleaf: 100
[6]; [12]
  Plant response rating, Velvetleaf: 100
[6]; [13]
  Plant response rating, Velvetleaf: 0
[6]; [14]
  Plant response rating, Velvetleaf: 70
Corn (Zea mays); [11]
  Plant response rating, Corn: 0
Corn (Zea mays); [12]
  Plant response rating, Corn: 10
Corn (Zea mays); [13]
  Plant response rating, Corn: 0
Corn (Zea mays); [14]
  Plant response rating, Corn: 0
[7]; [11]
  Plant response rating, Crabgrass, Large: 20
[7]; [12]
  Plant response rating, Crabgrass, Large: 70
[7]; [13]
  Plant response rating, Crabgrass, Large: 30
[7]; [14]
  Plant response rating, Crabgrass, Large: 50
[8]
  Plant response rating, Flood, Ducksalad: 0
  Ducksalad plant response rating: 0
[8]; [15]
  Plant response rating, Ducksalad: 0
[8]; [16]
  Plant response rating, Ducksalad: 0
[9]
  Plant response rating, Flood, Barnyardgrass: 0
  Barnyardgrass plant response rating: 0
[9]; [15]
  Plant response rating, Barnyardgrass: 0
[9]; [16]
  Plant response rating, Barnyardgrass: 0
Rice (Oryza sativa)
  Plant response rating, Flood, Rice: 0
  Rice plant response rating: 0
Rice (Oryza sativa); [15]
  Plant response rating, Rice: 0
Rice (Oryza sativa); [16]
  Plant response rating, Rice: 0
[10]
  Plant response rating, Flood, Sedge, Umbrella: 0
  Sedge, Umbrella plant response rating: 0
[10]; [15]
  Plant response rating, Sedge, Umbrella: 0
[10]; [16]
  Plant response rating, Sedge, Umbrella: 0

## O=C1CCCC(O)=C1C(=O)c1cnc(C2CCCCC2)n(-c2ccccc2)c1=O [Compound 106]
[1]; [11]
  Plant response rating, Pigweed: 80
[1]; [12]
  Plant response rating, Pigweed: 100
[1]; [13]
  Plant response rating, Pigweed: 80
[1]; [14]
  Plant response rating, Pigweed: 90
[2]; [11]
  Plant response rating, Wheat: 0
[2]; [12]
  Plant response rating, Wheat: 0
[2]; [13]
  Plant response rating, Wheat: 0
[2]; [14]
  Plant response rating, Wheat: 0
[3]; [11]
  Plant response rating, Foxtail, Giant: 20
[3]; [12]
  Plant response rating, Foxtail, Giant: 60
[3]; [13]
  Plant response rating, Foxtail, Giant: 40
[3]; [14]
  Plant response rating, Foxtail, Giant: 70
[4]; [11]
  Plant response rating, Morningglory: 100
[4]; [12]
  Plant response rating, Morningglory: 100
[4]; [13]
  Plant response rating, Morningglory: 50
[4]; [14]
  Plant response rating, Morningglory: 80
[5]; [11]
  Plant response rating, Barnyardgrass: 10
[5]; [12]
  Plant response rating, Barnyardgrass: 50
[5]; [13]
  Plant response rating, Barnyardgrass: 10
[5]; [14]
  Plant response rating, Barnyardgrass: 50
[6]; [11]
  Plant response rating, Velvetleaf: 100
[6]; [12]
  Plant response rating, Velvetleaf: 100
[6]; [13]
  Plant response rating, Velvetleaf: 40
[6]; [14]
  Plant response rating, Velvetleaf: 60
Corn (Zea mays); [11]
  Plant response rating, Corn: 0
Corn (Zea mays); [12]
  Plant response rating, Corn: 10
Corn (Zea mays); [13]
  Plant response rating, Corn: 0
Corn (Zea mays); [14]
  Plant response rating, Corn: 0
[7]; [11]
  Plant response rating, Crabgrass, Large: 40
[7]; [12]
  Plant response rating, Crabgrass, Large: 70
[7]; [13]
  Plant response rating, Crabgrass, Large: 70
[7]; [14]
  Plant response rating, Crabgrass, Large: 80
[8]
  Plant response rating, Flood, Ducksalad: 0
  Ducksalad plant response rating: 0
[8]; [15]
  Plant response rating, Ducksalad: 0
[8]; [16]
  Plant response rating, Ducksalad: 0
[9]
  Plant response rating, Flood, Barnyardgrass: 15
  Barnyardgrass plant response rating: 0
[9]; [15]
  Plant response rating, Barnyardgrass: 0
[9]; [16]
  Plant response rating, Barnyardgrass: 0
Rice (Oryza sativa)
  Plant response rating, Flood, Rice: 20
  Rice plant response rating: 0
Rice (Oryza sativa); [15]
  Plant response rating, Rice: 0
Rice (Oryza sativa); [16]
  Plant response rating, Rice: 20
[10]
  Plant response rating, Flood, Sedge, Umbrella: 0
  Sedge, Umbrella plant response rating: 0
[10]; [15]
  Plant response rating, Sedge, Umbrella: 0
[10]; [16]
  Plant response rating, Sedge, Umbrella: 0
